According to patent publication US10487046B1, “Dihydroxytyrosol hexamethylene-1,6-dicarbamate having antioxidant activity and a method of preparing the same” (SHAANXI UNIVERSITY OF SCIENCE AND TECHNOLOGY, priority 2019, dated 2019):

Test: DPPH Radical Scavenging Activity Assay
Format: biochemical
Conditions: for Scavenging Activity (%) (n = 3): DPPH 0.2×10^−4 mol/L in methanol, 30 minutes, 517 nm
Text: DPPH Radical Scavenging Activity Assay 2,2-Diphenyl-1-picryl hydrazyl (DPPH) is an organic compound composed of a stable organic radical. In the DPPH molecule, due to the presence of multiple electron-withdrawing —NO2 and large it bonds of the benzene ring, nitrogen free radical is stabilized. Its methanol solution is purple and has a maximum absorption peak at 517 nm. After the addition of an antioxidant, DPPH captures an electron to be paired with the free electron, and the purple fades and turns into a yellow substance. The absorption at 517 nm disappears, and the degree of fading is quantitatively related to the number of electrons it captures. Based on this principle, a spectrophotometer is used to detect the change of the absorbance of the DPPH radical and the sample solution, and the ability of the sample to provide hydrogen atoms and scavenge free radicals can be measured. (a) Preparation of DPPH solution: measuring exact amount of 2,2-diphenyl-1-picryl hydrazyl (DPPH) and dissolving in methanol to prepare a 0.2×10^−4 mol/L DPPH solution, stored at 0° C. in dark. (b) Preparation of sample solutions: Vc (vitamin C, positive control), dihydroxytyrosol hexamethylene-1,6-dicarbamate, and hydroxytyrosol (control) were dissolved in methanol and diluted in a concentration gradient. Measuring the scavenging activity of the sample solutions: 2 mL of the sample solutions (table 1) at each concentration gradient was taken, 2 mL 0.2×10^−4 mol/L DPPH solution was added, the mixture was mixed and reacted at room temperature in dark for 30 minutes, and methanol was then added to adjust final volume. The absorbance Ai was measured at 517 nm. 2 mL control solution and 2 mL methanol were mixed, and the absorbance Aj was measured. 2 mL DPPH solution and 2 mL methanol were mixed, and the absorbance Ao was measured. (d) The scavenging activity of the sample solution and control solutions is calculated according to the following calculation formula and shown in Table 3 and FIG. 3. Scavenging activity (%)=100×[1−(Ai−Aj)/Ao]

| Structure (SMILES) | Scavenging Activity (%) (n = 3) (1.76 ppm) | DPPH radical scavenging activity (in words) (1.76 to 915.20 ppm) | Scavenging Activity (%) (n = 3) (8.80 ppm) | Scavenging Activity (%) (n = 3) (21.12 ppm) | Scavenging Activity (%) (n = 3) (42.24 ppm) | Scavenging Activity (%) (n = 3) (79.20 ppm) | Scavenging Activity (%) (n = 3) (112.64 ppm) | Scavenging Activity (%) (n = 3) (281.60 ppm) | Scavenging Activity (%) (n = 3) (492.80 ppm) | Scavenging Activity (%) (n = 3) (792.00 ppm) | Scavenging Activity (%) (n = 3) (915.20 ppm) | DPPH radical scavenging activity compared with hydroxytyrosol (B) (at same concentration) |
| --- | --- | --- | --- | --- | --- | --- | --- | --- | --- | --- | --- | --- |
| O=C(NCCCCCCNC(=O)OCCc1ccc(O)c(O)c1)OCCc1ccc(O)c(O)c1 [A, dihydroxytyrosol hexamethylene-1,6-dicarbamate] | 19.87 | obvious DPPH radical scavenging activity in a concentration dependent manner | 23.68 | 37.02 | 68.43 | 76.52 | 86.33 | 91.48 | 95.31 | 96.66 | 97.14 | better DPPH radical scavenging activity than hydroxytyrosol (B) |
| OCCc1ccc(O)c(O)c1 [B, hydroxytyrosol] | 8.69 | – | 10.97 | 18.10 | 28.89 | 41.44 | 45.83 | 60.58 | 72.81 | 76.35 | 80.61 | – |
| O=C1O[C@H]([C@@H](O)CO)C(O)=C1O [Vc, Vitamin C] | 21.35 | – | 30.80 | 87.03 | 95.44 | 96.06 | 97.88 | 98.41 | 99.04 | 99.42 | 99.16 | – |
